11 compounds from patent US20110104145A1, “METHOD FOR THE TREATMENT OR PROPHYLAXIS OF CHRONIC INFLAMMATORY DISEASES” (priority 2008, published 2011) can be followed below.

Experiment [1] concerns polymorphonuclear cells. Description: Human skin migration assay (ex vivo skin graft, IgA-coated beads). It counts as cell-based. The settings on record: ex vivo mammary skin graft, beads injected intracutaneously, overnight at 37° C. Here is the method:
A full thickness mammary skin graft (epidermis and dermis) was placed in an ex-vivo tissue incubation chamber (method adapted from Oosterling, S J et al. Ann Surg. 2008; 247(1):85-94). 5 μl of IgA- or BSA-coated beads (17.5 μg/μl) were injected intracutaneously via the dermis, followed by addition of PKH-67 labeled polymorphonuclear cells (4×10^6 cells/well) to the wells. Due to the short half-life of polymorphonuclear cells after isolation, cells were supplemented with IFN-γ (300 units/ml; Boehringer Ingelheim, Alkmaar, The Netherlands). Skin was incubated overnight at 37° C. Biopsies of the injected skin were taken and snap frozen. Sections of biopsies were analysed with bright field and fluorescence microscopy.

Experiment [2] has as its system binding between IgA and CD89. Description: Blocking assay: two-dimensional polymorphonuclear cell migration to IgA-coated beads. The experiment is classed as cell-based, human. The settings on record: for blocking of the IgA-CD89 interaction / reduction of polymorphonuclear cell migration to IgA-beads (in words): polymorphonuclear cells; for blocking of the interaction between IgA and CD89: PKH67-polymorphonuclear cells, blocker 1-100 μg/ml, 20' at 37° C., assay of example 4. Here is the method: FIG. 6. IgA-induced migration can be reduced by interfering with IgA-CD89 interactions. Percentage inhibition of polymorphonuclear cell migration in the presence of 3 different anti-FcαRI mAb (white bars), 6 peptides that mimic either the IgA binding site on CD89 or the CD89 binding site on IgA (black bars) or a soluble variant of CD89 or FcαRI (sFcalphaRI, grey bar).
PKH67-polymorphonuclear cells (2.5×10^5 cells/well) were seeded in 96 wells flat bottom plates (Greiner), after which immunoglobulin-coated beads (10 μl/well) were added. For binding assays, cells were kept at 4° C. For migration assays, cells were incubated for 20′ 37° C., after which cell suspensions were collected and beads were washed 2 times with PBS to remove unbound PKH67-polymorphonuclear cells. Beads were incubated with a buffer containing 2.0 g/l hexadecyltrimethyl ammonium bromide, 1.0 g/l tween 20, 2.0 g/l BSA and 7.44 g/l EDTA in PBS to lyse bound PKH67-polymorphonuclear cells. Fluorescence was measured using 485 excitation and 520 emission filters (Fluostar Galaxy, BMG Labtechnologies, Offenburg, Germany).
The blocking potential of anti-FcαRI antibodies and/or sFcαRI and/or peptides that mimic either the IgA binding site on CD89 or the CD89 binding site on IgA was investigated using a 2-dimensional polymorphonuclear cells migration assay as detailed in example 4. For that purpose, PKH67-polymorphonuclear cells were incubated with different concentrations (ranging from 1-100 μg/ml in RPMI) of either anti-FcαRI blocking antibodies or with peptides mimicking the IgA binding site on CD89 for 20 minutes at 37° C. IgA-coated beads were incubated with different concentrations (ranging from 1-100 μg/ml in RPMI) of peptides mimicking the CD89 binding site on IgA for 20 minutes at 37° C. PKH67-polymorphonuclear cells (2.5×10^5 cells/well) that had not been incubated (as control) or PKH67-polymorphonuclear cells that had been incubated with blocking antibodies or peptides were seeded in 96 wells flat bottom plates (Greiner). Either non-incubated IgA-coated beads, or IgA-coated beads that had been incubated with peptides were added (10 μl/well). Cells were then incubated for 20′ at 37° C., after which cell suspensions were collected and beads were washed 2 times with PBS to remove unbound PKH67-polymorphonuclear cells. Beads were incubated with a buffer containing 2.0 g/l hexadecyltrimethyl ammonium bromide, 1.0 g/l Tween 20, 2.0 g/l BSA and 7.44 g/l EDTA in PBS to lyse bound PKH67-polymorphonuclear cells. Fluorescence was measured using 485 excitation and 520 emission filters (Fluostar Galaxy, BMG Labtechnologies, Offenburg, Germany) to determine the number of polymorphonuclear cells that had bound to IgA-coated beads. Percentage blocking was determined using the following equation: 100−(number of bound cells in blocking situation/number of bound cells without blocking×100) %.

Experiment [3] relates to polymorphonuclear cells. Description: Chemotaxis assay with supernatants of IgA-bead migration experiments. The experiment is classed as cell-based, human. The settings on record: mAb 100 μg/ml; U75302 10 μM in ethanol; 40 minutes at 37° C. On the procedure:
B) Supernatant was collected after addition of IgA-beads, and migration of freshly isolated polymorphonuclear cells to collected supernatant was measured in the presence of anti-BLTR1 (LTB4 receptor), anti-IL-8 or an isotype mAb control. Additionally, either an LTB4 receptor antagonist (U75302 in ethanol) or ethanol alone was added. Migration to supernatant in the absence of inhibitors was set at 100%.
Chemotaxis assays were essentially performed as described (Frevert et al., J. Immunol. Methods 213, 41 (1998)), modified for use in a 48 well Neuroprobe blind well chemotaxis chamber (Gaithersburg, Md.). Briefly, bottom wells were filled with supernatants of migration experiments (25 μl), and covered with a 3 μm pore polycarbonate filter (Neuroprobe). Purified LTB4 (Sigma) or IL-8 (Peprotech, Rocky Hill, N.J.) were used as positive controls. Top wells were filled with 50 μl calcein AM-labeled polymorphonuclear cells (1×10^6/ml). After a 40 minutes incubation period at 37° C., cells that had migrated towards the lower compartments were quantified with a fluorimeter (485 excitation/520 emission filters). To inhibit IL-8 mediated migration, experiments were conducted in the presence of 100 μg/ml blocking anti-IL-8 mAb (BD Biosciences). LTB4-mediated migration was investigated by blocking LTB4 receptors with 100 μg/ml anti-BLTR1 mAb (BD Biosciences). […]

Regarding “GRYQAQYRIGHYRFRYSD [PEO-50#8,9, EF loop peptide (CD89 75-92)]”, the “migration of polymorphonuclear cells to IgA-coated beads in human skin” value (shortened to “migration of polymorphonuclear cells”) in the experiment on polymorphonuclear cells [1] is given as “completely prevent migration”.

Take GRYQCQYRIGHYRFRYSD [Sym-060]: in experiment [2], the “blocking of the IgA-CD89 interaction / reduction of polymorphonuclear cell migration to IgA-beads (in words)” value is recorded as “performed somewhat less but was still found useful”.

Regarding “SSMVGHEALPLAFTQKT [PEO-45#7,8, 17-mer stretch (amino acids 431-447) selected from the Fc region of IgA]”, the “migration of polymorphonuclear cells” value in the experiment with polymorphonuclear cells [1] is given as “completely prevent migration”.

For `CCCCC/C=C\C[C@@H](O)/C=C/c1cccc(C[C@@H](O)CCCCO)n1` [receptor antagonist, U75302], in the experiment on polymorphonuclear cells [3], the “chemotactic activity of supernatant of IgA-bead migration experiments” value was “reduced”.

On to SCMVGHEALPLAFTQCT [PEO-46#7,8], for which, in experiment [2], the “blocking of the IgA-CD89 interaction / reduction of polymorphonuclear cell migration to IgA-beads (in words)” value is given as “provided good results”.

For AQAIREAYL, the “blocking of the IgA-CD89 interaction / reduction of polymorphonuclear cell migration to IgA-beads (in words)” value in experiment [2] is on record as “performed well”.

Regarding YRIGHYRFR, the “blocking of the IgA-CD89 interaction / reduction of polymorphonuclear cell migration to IgA-beads (in words)” value in experiment [2] is “performed well”.

Consider LKFWNETDP, for which the “blocking of the IgA-CD89 interaction / reduction of polymorphonuclear cell migration to IgA-beads (in words)” value in experiment [2] is on record as “performed well”.

With REIGRRLKFWNETDP [Fc alpha 113], the “blocking of the interaction between IgA and CD89” value in experiment [2] was “up to 19%”.

“sFcαRI: soluble form of FcαRI: extracellular part (ecto domain) of FcαRI expressed in 293T cells”: in the experiment on polymorphonuclear cells [1], the “migration of polymorphonuclear cells” value was “completely prevent migration”. Moreover, in experiment [2], the “blocking of the IgA-CD89 interaction / reduction of polymorphonuclear cell migration to IgA-beads (in words)” value was “efficiently block the interaction”.

EDLLLGSEA [IgA CH2]: in experiment [2], the “blocking of the interaction between IgA and CD89” value was “up to 23%”.
